# Test results reported in patent US20260166115A1, “POLYUNSATURATED FATTY ACID-BOUND ALPHA FETOPROTEIN PROMOTES IMMUNE SUPPRESSION BY ALTERING HUMAN DENDRITIC CELL METABOLISM” (The Regents of the University of California, priority 2022, published 2026).
# What was measured:
# Type in all cases: cell-based, human
# iDCs = experiment: Fatty acid screen: fatty acids titrated onto iDCs without OVA, nAFP or tAFP; settings: for lactate production: relative to control cells, 16:0 at 5-20 μM in b86
# Excerpt: We developed an in vitro assay to screen specific FAs that are necessary for tAFP-mediated suppression of DC formation (FIG. 6A). Many of the FAs screened have known roles in promoting (Weatherill, A. R. et al. Saturated and Polyunsaturated Fatty Acids Reciprocally Modulate Dendritic Cell Functions Mediated through TLR4. J Immunol. 174, 5390-5397 (2005); Lancaster, G. I. et al. Evidence that TLR4 Is Not a Receptor for Saturated Fatty Acids but Mediates Lipid-Induced Inflammation by Reprogramming Macrophage Metabolism. Cell Metab. 27, 1096-1110.e5 (2018)) or limiting DC differentiation (Zeyda, M. et al. Polyunsaturated Fatty Acids Block Dendritic Cell Activation and Function Independently of NF-κB Activation. J Biol. Chem. 280, 14293-14301 (2005)). Therefore, to determine their necessity for tAFP-mediated DC suppression, we titrated several FAs unique to tAFP (20:3 N6, 20:5, and 22:5 N3), and other PUFAs to determine the concentration they lost their inherent ability to suppress DC differentiation in the absence of OVA, nAFP, or tAFP (FIG. 6A). […] All three PUFAs at high concentrations inhibited CD206 expression on DCs (Zeyda. M. et al. Polyunsaturated Fatty Acids Block Dendritic Cell Activation and Function Independently of NF-κB Activation. J Biol. Chem. 280, 14293-14301 (2005)), at levels equivalent to or greater than tAFP treatment.
# Fatty acids were resuspended in ethanol and stored at −20° C. at 100 uM. […] Both the native preparations and HMM fractions contained similar amounts of protein (˜0.5 mg/mL), whereas protein was undetectable ([…]) in the low molar mass (LMM) fraction. […] Fats (+/−HMM) were added to pre-warmed media and incubated for 1 hour, mixing at 37° C. before adding to cells (Alsabeeh, N., Chausse, B., Kakimoto, P. A., Kowaltowski, A. J. & Shirihai, O. Cell Culture Models of Fatty Acid Overload: Problems and Solutions. Biochim. Biophys. Acta 1863, 143-151 (2018)). Fats were combined with HMM at a 3:1 molar ratio, as previously described (Alsabeeh, N., Chausse, B., Kakimoto, P. A., Kowaltowski, A. J. & Shirihai. O. Cell Culture Models of Fatty Acid Overload: Problems and Solutions. Biochim. Biophys. Acta 1863, 143-151 (2018)).
# iDCs and mDCs = experiment: Fatty acid screen: fatty acids added back to HMM OVA, nAFP or tAFP; settings: for CD206 expression at the iDC stage / inhibition of CD206 expression, mDC: FA combined with tAFP; for CD206 expression compared to controls: FA+HMM tAFP
# Procedure: Fatty acids were resuspended in ethanol and stored at −20° C. at 100 uM.
# mDCs generated in vitro = experiment: scMEP single-cell metabolic regulome profiling by CyTOF
# Procedure: scMEP analysis was performed as recently described (Hartmann et al., 2021). In short, antibodies targeting metabolic features were conjugated in-house using an optimized conjugation protocol (Hartmann et al., 2019) and validated on multiple sample types. Cells were prepared for scMEP analysis by incubation with small molecules to be able to assess biosynthesis rates of DNA, RNA and protein, cisplatin-based live/dead staining, PFA-based cell fixation and cryopreservation (dx.doi.org/10.17504/protocols.io.bkwkkxcw). Next, cells were stained with metabolic antibodies in a procedure that includes surface staining for 30 min at RT, PFA-fixation for 10 min at RT, MeOH-based permeabilization for 10 min on ice, intracellular staining for 1 h at RT and DNA intercalation (dx.doi.org/10.17504/protocols.io.bntnmeme). Finally, cells were acquired on a CyTOF2 mass cytometer (Fluidigm). Protein targets and antibody information used in scMEP are listed in supplementary table 2. Raw mass spectrometry data were pre-processed, de-barcoded and imported into R environment using the flowCore package (version 2.0.1) (Hahne et al., 2009). Values were arcsin h transformed (cofactor 5) and normalized (Hartmann et al., 2021) for downstream analyses based on previously reported workflow (Nowicka et al., 2017).
# [1] = tested on: monocyte-derived dendritic cells (DCs); experiment: Glucose and lactate measurements in DC cultures; settings: DC
# Excerpt: (§1) DCs were differentiated in vitro similarly as previously described (Pardee, A. D., Shi, J. & Butterfield, L. H. Tumor-Derived α-Fetoprotein Impairs the Differentiation and T Cell Stimulatory Activity of Human Dendritic Cells. J Immunol. 193, 5723-5732 (2014)). In brief, cryopreserved PBMC were thawed and CD14*monocytes were magnetically labeled using CD14 MicroBeads (Miltenyi, Cat #130-050-201) and isolated by LS columns (Miltenyi, Cat #130-042-401) per the manufacturer instructions. Viable eluted cells were enumerated using trypan blue on a Nexcelom Cellometer Spectrum. To generate iDCs, monocytes were stimulated for 5 days in the presence of 800 IU/mL of rGM-CSF (Miltenyi, Cat #130-093-862) and 500 IU/mL of rIL-4 (Miltenyi, Cat #130-095-373) as well as OVA, nAFP, or tAFP in CellGenix® GMP DC media (Cat #20801-0500) 37° C. at 5% CO2. Lastly, we performed an additional 24-hour stimulation with 1000 IU/mL of rIFN-γ (Peprotech, Cat #300-02) and 250 ng/mL of LPS (Sigma Aldrich, Cat #L2630-10MG) to produce mDCs. To harvest cells, DC were detached using TrypLE™ Select (Gibco, Cat #12563011) for 15 minutes at 37° C. and then washed several times with cold PBS.
# Glucose and lactate were measured by applying approximately 5 μL of supernatant to Clarity BG1000 Blood Glucose strips (Cat #75840-798) and meter (Cat #75840-800) system or the Lactate Plus strips (Nova Biomedical©, Cat #40813) and meter version 2 (Nova Biomedical©, Cat #62624) system. Each meter was quality checked with control glucose and lactate solutions and CellGenix™ media before each experiment.
# [2] = tested on: monocyte-derived dendritic cells (DCs); experiment: SCENITH single-cell energetic metabolism profiling of treated DCs; settings: DC
# Excerpt: as §1
# SCENITH was performed as described in (Arguello et al., 2020). SCENITH™ reagents kit (inhibitors, puromycin and antibodies) were obtained from www.scenith.com/try-it and used according to the provided protocol for in-vitro derived myeloid cells. Briefly, control and tol-moDC cultures at desired timepoints, were treated for 18 minutes with Control (DMSO), 2-Deoxy-Glucose (2-DG; 100 mM), Oligomycin (0; 1 μM), a combination of 2DG and Oligomycin (DGO) or Harringtonine (H; 2 μg/mL). Following metabolic inhibitors, Puromycin (final concentration 10 μg/mL) was added to cultures for 17 min. After puromycin treatment, cells were detached from wells using TypLE Select (Fisher Scientific, 505914419), washed in cold PBS and stained with a combination of Human TureStain FcX (Biolegend, 422301) and fluorescent cell viability dye (Biolegend, 423105) for 10 min 4° C. in PBS. Following PBS wash step, primary antibodies against surface markers were incubated for 25 min at 4° C. in Brilliant Stain Buffer (BD Biosciences, 563794). Next cells were fixed and permeabilized using True-Nuclear Transcription Factor Buffer Set (Biolegend, 424401) as per manufacturer instructions. Intracellular staining of puromycin and protein targets was performed for 1 h in diluted (10×) permeabilization buffer at 4° C. Finally, data acquisition was performed using the Cytek Aurora flow cytometer. Primary conjugated antibody information used in SCENITH panel is listed in supplementary table 1. All antibodies were titrated to reduce spillover and increase resolution using single stained moDC (generated as described above) samples. Unstained cell controls used for autofluorescence extraction were generated for each time point, culture conditions (control, vitd3-tol-moDC and dexa-vitd3-tol-moDC) and metabolic inhibitor treatments (C, 2DG, O, DGO). Samples were unmixed using reference controls generated in combination with stained Ultracomp beads (Fisher Scientific, 01-2222-41) and stained cells using the SpectroFlo Software v2.2.0.1. The unmixed FCS files were used for data processing and analysis using FlowJo (BD, version 10.7.1). Manually gated CD14-HLA-DR*CD86+ cells were used for downstream analysis. gMFI expression values were imported into R environment for correlation and heatmap analysis using the below described R packages.
molecule,measurement,setting,value
"CCCCCCCCCCCCCCCC(=O)O [16:0, palmitic acid]",ox-phos,iDCs,can promote
same,CD206 expression on DCs,iDCs; fatty acid alone,increase
same,DC differentiation,iDCs; fatty acid alone,tended to promote
same,lactate production,iDCs; fatty acid alone,tended to decrease
same,lactate production,"iDCs; fatty acid alone, listed as palmitic acid",decrease
"CCCCC/C=C\C/C=C\C/C=C\CCCCCCC(=O)O [20:3 N6, dihomo-γ-linolenic acid]",CD206 expression at the iDC stage,iDCs and mDCs,immunoregulatory activity
same,"inhibition of CD206 expression, mDC",iDCs and mDCs,~-15%
same,CD206 expression compared to controls,iDCs and mDCs,significantly reduced
"CCCCC/C=C\C/C=C\C/C=C\C/C=C\CCCCCC(=O)O [22:4, adrenic acid]","inhibition of CD206 expression, mDC",iDCs and mDCs,~-15%
"CCCCC/C=C\C/C=C\C/C=C\C/C=C\CCCC(=O)O [20:4, arachidonic acid]",CD206 expression at the iDC stage,iDCs and mDCs,immunoregulatory activity
same,"inhibition of CD206 expression, mDC",iDCs and mDCs,~-15%
same,CD206 expression compared to controls,iDCs and mDCs,significantly reduced
"palmitic acid-bound AFP: alpha fetoprotein non-covalently bound to palmitic acid (protein, UniProt P02771 19-609, looked up, non-covalently bound palmitic acid) Alpha-fetoprotein: RTLHRNEYGIASILDSYQCTAEISLADLATIFFAQFVQEATYKEVSKMVKDALTAIEKPTGDEQSSGCLENQLPAFLEELCHEKEILEKYGHSDCCSQSEEGRHNCFLAHKKPTPASIPLFQVPEPVTSCEAYEEDRETFMNKFIYEIARRHPFLYAPTILLWAARYDKIIPSCCKAENAVECFQTKAATVTKELRESSLLNQHACAVMKNFGTRTFQAITVTKLSQKFTKVNFTEIQKLVLDVAHVHEHCCRGDVLDCLQDGEKIMSYICSQQDTLSNKITECCKLTTLERGQCIIHAENDEKPEGLSPNLNRFLGDRDFNQFSSGEKNIFLASFVHEYSRRHPQLAVSVILRVAKGYQELLEKCFQTENPLECQDKGEEELQKYIQESQALAKRSCGLFQKLGEYYLQNAFLVAYTKKAPQLTSSELMAITRKMAATAATCCQLSEDKLLACGEGAADIIIGHLCIRHEMTPVNPGVGQCCTSSYANRRPCFSSLVVDETYVPPAFSDDKFIFHKDLCQAQGVALQTMKQEFLINLVKQKPQITEEQLEAVIADFSGLLEKCCQGQEQEVCFAEEGQKLISKTRAALGV",CD206 expression in dendritic cells,iDCs and mDCs; fatty acid-bound AFP,increased
same,lactate secretion in dendritic cells,iDCs and mDCs; fatty acid-bound AFP,decreased
"nAFP: cord blood-derived normal alpha fetoprotein; commercially available (Cell Sciences) (protein, UniProt P02771 19-609, looked up) Alpha-fetoprotein: RTLHRNEYGIASILDSYQCTAEISLADLATIFFAQFVQEATYKEVSKMVKDALTAIEKPTGDEQSSGCLENQLPAFLEELCHEKEILEKYGHSDCCSQSEEGRHNCFLAHKKPTPASIPLFQVPEPVTSCEAYEEDRETFMNKFIYEIARRHPFLYAPTILLWAARYDKIIPSCCKAENAVECFQTKAATVTKELRESSLLNQHACAVMKNFGTRTFQAITVTKLSQKFTKVNFTEIQKLVLDVAHVHEHCCRGDVLDCLQDGEKIMSYICSQQDTLSNKITECCKLTTLERGQCIIHAENDEKPEGLSPNLNRFLGDRDFNQFSSGEKNIFLASFVHEYSRRHPQLAVSVILRVAKGYQELLEKCFQTENPLECQDKGEEELQKYIQESQALAKRSCGLFQKLGEYYLQNAFLVAYTKKAPQLTSSELMAITRKMAATAATCCQLSEDKLLACGEGAADIIIGHLCIRHEMTPVNPGVGQCCTSSYANRRPCFSSLVVDETYVPPAFSDDKFIFHKDLCQAQGVALQTMKQEFLINLVKQKPQITEEQLEAVIADFSGLLEKCCQGQEQEVCFAEEGQKLISKTRAALGV",levels of cytochrome C (CytC),mDCs generated in vitro,elevated
same,glucose uptake,[1],modestly increases
same,FAO,[2],similarly reduces
same,glucose dependent metabolism,[2],modestly increases
